According to the supplement of paper PMC10307832:

Experiments:
Assay in all cases: relative viability (nuclei count vs DMSO), 5 days (fraction); higher = more cells survive
EHT 1864 + Tozasertib = compound: C1COCCN1CC2=CC(=O)C(=CO2)OCCCCCSC3=C4C=CC(=CC4=NC=C3)C(F)(F)F [EHT 1864] + Cc1cc(Nc2cc(N3CCN(C)CC3)nc(Sc3ccc(NC(=O)C4CC4)cc3)n2)n[nH]1 [Tozasertib] (partner 0.1 µM)
How it was run: (§1)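 After 5 days of treatment, lung cancer cells in 1536-well plates were fixed and stained in a single step (final 0.05% Triton X-100, 1% formaldehyde, 1 ug/ml Hoechst) and their nuclei counted on 4× images. Treatment had been applied by pin tool the day after seeding as one drug alone or as a fixed anchor-drug dose with five library-drug doses (not always all listed) in √10 steps. Relative viability is the nuclei count of treated wells divided by that of vehicle wells, and values are medians of duplicate plates.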

EHT 1864 + Dasatinib = compound: C1COCCN1CC2=CC(=O)C(=CO2)OCCCCCSC3=C4C=CC(=CC4=NC=C3)C(F)(F)F [EHT 1864] + Cc1nc(Nc2ncc(C(=O)Nc3c(C)cccc3Cl)s2)cc(N2CCN(CCO)CC2)n1 [Dasatinib] (partner 0.075 µM)
How it was run: as §1

EHT 1864 + Foretinib = compound: C1COCCN1CC2=CC(=O)C(=CO2)OCCCCCSC3=C4C=CC(=CC4=NC=C3)C(F)(F)F [EHT 1864] + COc1cc2c(Oc3ccc(NC(=O)C4(C(=O)Nc5ccc(F)cc5)CC4)cc3F)ccnc2cc1OCCCN1CCOCC1 [Foretinib] (partner 0.25 µM)
How it was run: as §1

EHT 1864 + Phenformin = compound: C1COCCN1CC2=CC(=O)C(=CO2)OCCCCCSC3=C4C=CC(=CC4=NC=C3)C(F)(F)F [EHT 1864] + N=C(N)NC(=N)NCCc1ccccc1 [Phenformin] (partner 250 µM)
How it was run: as §1

EHT 1864 + OSI-027 = compound: C1COCCN1CC2=CC(=O)C(=CO2)OCCCCCSC3=C4C=CC(=CC4=NC=C3)C(F)(F)F [EHT 1864] + COc1cccc2cc(-c3nc([C@H]4CC[C@H](C(=O)O)CC4)n4ncnc(N)c34)[nH]c12 [OSI-027] (partner 0.5 µM)
How it was run: as §1

EHT 1864 + Luminespib = compound: C1COCCN1CC2=CC(=O)C(=CO2)OCCCCCSC3=C4C=CC(=CC4=NC=C3)C(F)(F)F [EHT 1864] + CCNC(=O)c1noc(-c2cc(C(C)C)c(O)cc2O)c1-c1ccc(CN2CCOCC2)cc1 [Luminespib] (partner 0.01 µM)
How it was run: as §1

EHT 1864 = compound: C1COCCN1CC2=CC(=O)C(=CO2)OCCCCCSC3=C4C=CC(=CC4=NC=C3)C(F)(F)F [EHT 1864]
How it was run: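 For viability, nuclei in each treated well were divided by nuclei in vehicle wells and the median across plates was taken. Lung cancer cell lines in 1536-well plates were pinned with five library-drug doses (not always all listed) spaced by √10, cultured 5 days without medium change, and imaged at 4× after Hoechst staining, with plates passing only at control CV below 25% and at least one doubling.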

## NCI-H1623
EHT 1864 + Tozasertib; first compound 0.04 µM
  relative viability: 0.418
EHT 1864 + Tozasertib; first compound 0.1265 µM
  relative viability: 0.394
EHT 1864 + Tozasertib; first compound 0.4 µM
  relative viability: 0.445
EHT 1864 + Tozasertib; first compound 1.265 µM
  relative viability: 0.458
EHT 1864 + Tozasertib; first compound 4 µM
  relative viability: 0.399
EHT 1864 + Dasatinib; first compound 0.04 µM
  relative viability: 0.641
EHT 1864 + Dasatinib; first compound 0.1265 µM
  relative viability: 0.676
EHT 1864 + Dasatinib; first compound 0.4 µM
  relative viability: 0.514
EHT 1864 + Dasatinib; first compound 1.265 µM
  relative viability: 0.583
EHT 1864 + Dasatinib; first compound 4 µM
  relative viability: 0.477
EHT 1864 + Foretinib; first compound 0.04 µM
  relative viability: 0.937
EHT 1864 + Foretinib; first compound 0.1265 µM
  relative viability: 0.869
EHT 1864 + Foretinib; first compound 0.4 µM
  relative viability: 0.855
EHT 1864 + Foretinib; first compound 1.265 µM
  relative viability: 0.959
EHT 1864 + Foretinib; first compound 4 µM
  relative viability: 0.959
EHT 1864 + Phenformin; first compound 0.04 µM
  relative viability: 0.617
EHT 1864 + Phenformin; first compound 0.1265 µM
  relative viability: 0.665
EHT 1864 + Phenformin; first compound 0.4 µM
  relative viability: 0.576
EHT 1864 + Phenformin; first compound 1.265 µM
  relative viability: 0.617
EHT 1864 + Phenformin; first compound 4 µM
  relative viability: 0.539
EHT 1864 + OSI-027; first compound 0.04 µM
  relative viability: 0.439
EHT 1864 + OSI-027; first compound 0.1265 µM
  relative viability: 0.433
EHT 1864 + OSI-027; first compound 0.4 µM
  relative viability: 0.474
EHT 1864 + OSI-027; first compound 1.265 µM
  relative viability: 0.475
EHT 1864 + OSI-027; first compound 4 µM
  relative viability: 0.432
EHT 1864 + Luminespib; first compound 0.04 µM
  relative viability: 0.584
EHT 1864 + Luminespib; first compound 0.1265 µM
  relative viability: 0.522
EHT 1864 + Luminespib; first compound 0.4 µM
  relative viability: 0.445
EHT 1864 + Luminespib; first compound 1.265 µM
  relative viability: 0.581
EHT 1864 + Luminespib; first compound 4 µM
  relative viability: 0.384
EHT 1864; 0.04 µM
  relative viability: 0.995
EHT 1864; 0.1265 µM
  relative viability: 0.972
EHT 1864; 0.4 µM
  relative viability: 1.02
EHT 1864; 1.265 µM
  relative viability: 0.921
EHT 1864; 4 µM
  relative viability: 1.14
